Here are results for 7 molecules from patent publication US7592347B2, “Piperazine derivates and their use for the treatment of neurological and psychiatric diseases” (Glaxo Group Limited, priority 2003, dated 2009).

For this assay, the target named is T1, histamine H3 receptor (Homo sapiens, UniProt Q9Y5N1).
T1 construct: expressed in transfected cells; host or cells: CHO K1 cells carrying pSwitch, transfected with pGeneH3 and induced with mifepristone; clone 3H3; membranes
T1 sequence (Q9Y5N1 whole entry): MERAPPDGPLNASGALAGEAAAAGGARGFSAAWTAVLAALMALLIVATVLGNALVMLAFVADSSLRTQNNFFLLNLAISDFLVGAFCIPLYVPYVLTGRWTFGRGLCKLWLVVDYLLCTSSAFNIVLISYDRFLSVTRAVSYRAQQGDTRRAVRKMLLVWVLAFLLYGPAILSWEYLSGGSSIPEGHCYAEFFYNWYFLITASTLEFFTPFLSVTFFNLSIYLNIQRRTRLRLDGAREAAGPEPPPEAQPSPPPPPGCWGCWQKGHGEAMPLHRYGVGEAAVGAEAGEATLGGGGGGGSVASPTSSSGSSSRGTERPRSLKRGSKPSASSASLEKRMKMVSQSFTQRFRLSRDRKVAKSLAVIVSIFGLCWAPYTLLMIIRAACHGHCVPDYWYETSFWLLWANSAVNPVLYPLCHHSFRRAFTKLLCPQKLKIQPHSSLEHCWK
Nature of the assay: Histamine H3 functional antagonist assay ([35S]GTPγS SPA, membranes of CHO K1 cells expressing human H3). It is filed as biochemical. To be noted: functional antagonism of histamine (0.3 μM) stimulated [35S]GTPγS binding, membranes of CHO K1 cells with human histamine H3. As to the method: A membrane preparation containing histamine H3 receptors may be prepared in accordance with the following procedures:
Ligated DNA was transformed into competent DH5α E. coli host bacterial cells and plated onto Luria Broth (LB) agar containing Zeocin™ (an antibiotic which allows the selection of cells expressing the sh ble gene which is present on pGene and pSwitch) at 50 μg ml^−1. Colonies containing the re-ligated plasmid were identified by restriction analysis. DNA for transfection into mammalian cells was prepared from 250 ml cultures of the host bacterium containing the pGeneH3 plasmid and isolated using a DNA preparation kit (Qiagen Midi-Prep) as per manufacturers guidelines (Qiagen).
CHO K1 cells previously transfected with the pSwitch regulatory plasmid (InVitrogen) were seeded at 2×10e6 cells per T75 flask in Complete Medium, containing Hams F12 (GIBCOBRL, Life Technologies) medium supplemented with 10% v/v dialysed foetal bovine serum, L-glutamine, and hygromycin (100 μg ml^−1), 24 hours prior to use. Plasmid DNA was transfected into the cells using Lipofectamine plus according to the manufacturers guidelines (InVitrogen). 48 hours post transfection cells were placed into complete medium supplemented with 500 μg ml^−1 Zeocin™.
10-14 days post selection 10 nM Mifepristone (InVitrogen), was added to the culture medium to induce the expression of the receptor. […] Approximately 1×10e7 cells were examined for receptor expression by staining with a rabbit polyclonal antibody, 4a, raised against the N-terminal domain of the histamine H3 receptor, incubated on ice for 60 minutes, followed by two washes in sorting medium. […] Following two further washes with Sorting Medium, cells were filtered through a 50 μm Filcon™ (BD Biosciences) and then analysed on a FACS Vantage SE Flow Cytometer fitted with an Automatic Cell Deposition Unit. […] Positively stained cells were sorted as single cells into 96-well plates, containing Complete Medium containing 500 μg ml^−1 Zeocin™ and allowed to expand before reanalysis for receptor expression via antibody and ligand binding studies.
All steps of the protocol are carried out at 4° C. and with pre-cooled reagents. The cell pellet is resuspended in 10 volumes of buffer A2 containing 50 mM N-2-hydroxyethylpiperazine-N′-2-ethanesulfonic acid (HEPES)(pH 7.40) supplemented with 10e−4M leupeptin (acetyl-leucyl-leucyl-arginal; Sigma L2884), 25 μg/ml bacitracin (Sigma B0125), 1 mM ethylenediamine tetra-acetic acid (EDTA), 1 mM phenylmethylsulfonyl fluoride (PMSF) and 2×10e−6M pepstain A (Sigma). The cells are then homogenised by 2×15 second bursts in a 1 litre glass Waring blender, followed by centrifugation at 500 g for 20 minutes. The supernatant is then spun at 48,000 g.for 30 minutes. The pellet is resuspended in 4 volumes of buffer A2 by vortexing for 5 seconds, followed by homogenisation in a Dounce homogeniser (10-15 strokes). At this point the preparation is aliquoted into polypropylene tubes and stored at −70° C. […]
The plate is then incubated on a shaker at room temperature for 30 minutes followed by centrifugation for 5 minutes at 1500 rpm. The plate is read between 3 and 6 hours after completion of centrifuge run in a Wallac Microbeta counter on a 1 minute normalised tritium count protocol. Data is analysed using a 4-parameter logistic equation. Basal activity used as minimum i.e. histamine not added to well.
The Kb is the equilibrium dissociation constant of an antagonist, usually derived from a functional assay. Higher therefore signals a less potent antagonist. For `Cc1noc(-c2ccc(N3CCC(C(=O)N4CCCN(C(C)C)CC4)CC3)cc2)n1` [Example E168, 1-Isopropyl-4-{1-[4-(3-methyl-1,2,4-oxadiazol-5-yl)phenyl]-piperidine-4-carbonyl}-[1,4]-diazepane], the antagonist equilibrium constant (Kb) is less than 3.16 nM.

With `CC(=O)Nc1ccc(N2CCC(C(=O)N3CCCN(C(C)C)CC3)CC2)cc1F` [Example E169, 1-Isopropyl-4-[1-(4-acetamido-3-fluorophenyl)-piperidine4-carbonyl]-[1,4]-diazepane], the antagonist dissociation constant (Kb) was less than 3.16 nM.

The molecule `CC(=O)c1ccc(N2CCC(C(=O)N3CCCN(C4CCC4)CC3)CC2)cc1` [Example E170, 1-Cyclobutyl-4-[1-(4-acetylphenyl)-piperidine-4-carbonyl]-[1,4]-diazepane] had an antagonist dissociation constant (Kb) of less than 3.16 nM.

`N#Cc1ccc(N2CCC(C(=O)N3CCCN(C4CCC4)CC3)CC2)cn1` [Example E179, 1-Cyclobutyl-4-[1-(6-cyano-pyridin-3-yl)-piperidine-4-carbonyl]-[1,4]-diazepane] gave an antagonist dissociation constant (Kb) of less than 3.16 nM.

Consider `CC(C)N1CCCN(C(=O)C2CCN(c3ccc(C#N)nc3)CC2)CC1` [Example E180, 1-Isopropyl-4-[1-(6-cyano-pyridin-3-yl)-piperidine-4-carbonyl]-[1,4]-diazepane], for which the antagonist equilibrium constant (Kb) is less than 3.16 nM.

The molecule `Cc1noc(-c2ccc(N3CCC(C(=O)N4CCN(C(C)C)CC4)CC3)cc2)n1` [Example E185, 1-Isopropyl-4-{1-[4-(3-methyl-1,2,4-oxadiazol-5-yl)phenyl]-piperidine-4-carbonyl}-piperazine] showed a Kb of less than 3.16 nM.

`CC(C)N1CCCN(C(=O)C2CCN(c3cnc(C(F)(F)F)nc3)CC2)CC1` [Example E198, 1-Isopropyl-4-[1-(2-trifluoromethylpyrimidin-5-yl)-piperidine-4-carbonyl]-[1,4]-diazepane] showed an antagonist dissociation constant (Kb) of less than 3.16 nM.
